Data published in patent publication US4096259A, “Non-amphetaminic psychostimulating compositions of 1,4-disubstituted piperazines” (priority 1975, dated 1978).

Tests used:
[1] = Acute toxicity (LD50) in mice, per os; settings: mouse, in vivo, po
Description: Acute toxicity was studied by determining the LD50 in mice, the derivatives being administered per os.

[2] = test system: exploration response in mice; assay: Psychostimulating activity: increase of exploration response in mice (actimetry); assay type: in vivo; settings: Mus musculus, po, per os, dose which increases exploration response by 50%
Description: The psychostimulating activity was studied by determining the dose which increases the exploration response in mice (actimetry) by 50% (ED50),according to the method described by BOISSIER J.R. and SIMON P. (Arc. Int. Pharmacolyn, 1965, 212-221158).

[3] = test system: rat isolated duodenum; assay: In vitro papaverine spasmolytic activity: duodenum contractions in rats induced by barium chloride
Procedure: The papaverine spasmolytic activity was measured "in vitro" by the concentration ratio: active principle/papaverine hydrochloride concentration, which reduces duodenum contractions in rats, induced by barium chloride, by 50% according to the method of POMARET J. C., SERGANT - ODY M., POURRIAS B. and HUGUET G. (Therapie, 1969, 24, 109-143).
(§1) Table V below gives, by way of example, the complementary pharmacological activities such as antiserotonin, adrenolytic and atropinic activities for derivatives N° 21, 23 and 33, the spasmolytic activity of which is the greatest for the rat isolated duodenum.

[4] = Group toxicity (LD50 grouped mice / LD50 isolated mice); settings: mouse, in vivo
[5] = test system: mortality with pentetrazole in mice; assay: Potentiation of mortality with pentetrazole in mice; assay type: in vivo; settings: per os
[6] = test system: ptose with reserpine in mice; assay: Ptose antagonism with reserpine in mice; assay type: in vivo; settings: Mus musculus, po, per os
[7] = test system: sleep in mice; assay: Anti-sleep activity in mice; assay type: in vivo
[8] = test system: dog cardiovascular system; assay: Secondary action on the dog cardiovascular system, intravenous; assay type: in vivo; settings: intravenous administration
[9] = Chronic toxicity in rats, oral; assay type: in vivo; settings: per os, 40 mg/kg, 6 out of 7 days, six months
[10] = test system: rabbit aorta; assay: In vitro spasmolytic action on the rabbit aorta; settings: papaverine hydrochloride = 1
Description: as §1

[11] = test system: rabbit isolated ear; assay: In vitro spasmolytic action on the rabbit isolated ear; settings: papaverine hydrochloride = 1
Description: as §1

[12] = test system: paw vessels of the dog; assay: In vivo spasmolytic action on paw vessels of the dog; settings: papaverine hydrochloride = 1
Description: as §1

[13] = test system: female rat uterus in oestrus; assay: In vitro anti-serotonin activity on the female rat uterus in oestrus; settings: Methysergide = 1
Description: as §1

[14] = test system: Guinea-pig seminal vesicle; assay: In vitro adrenolytic action on the Guinea-pig seminal vesicle; settings: Yohimbine hydrochloride = 1
Description: as §1

[15] = test system: Guinea-pig ileum; assay: In vitro atropinic action on the Guinea-pig ileum; settings: Atropine sulfate = 1
Description: as §1

[16] = test system: arteritis of the lower limbs, cerebral vascular sclerosis, sequelae of hemiplegia; assay: Clinical test in arteritis of the lower limbs, cerebral vascular sclerosis, sequelae of hemiplegia; assay type: in vivo, adults; settings: 15 mg/day oral, one month
Procedure: By way of example, clinical tests were carried out on derivatives N° 5 and 21.

[17] = cerebral vascular sclerosis, 4 cases

CCOC(=O)CCN1CCN(CCOC(c2ccc(F)cc2)c2ccc(F)cc2)CC1.Cl.Cl [Derivative 21, 1-(ethoxycarbonylethyl)-4[2(4,4'-difluorobenzhydryloxy)-ethyl]piperazine dihydrochloride]
LD50 [1]: 750 mg/kg | ED50 [2]: 30 mg/kg | Spasmolytic activity (papaverine hydrochloride = 1) ([3]; in vitro, rat duodenum, barium chloride, relative to papaverine hydrochloride = 1): 8,5 | spasmolytic activity for the rat isolated duodenum (in words) ([3]; rat isolated duodenum): greatest | spasmolytic activity of the papaverine type in the tests as a whole (in words) ([3]; tests as a whole): excellent spasmolytic activity | selectivity ratio [4]: 0.4 | Potentiation of mortality with pentetrazole in mice ED50 [5]: > 100 mg/kg | ED50 [6]: 70 mg/kg | Anti-sleep activity in mice [7]: Nil | secondary action on the dog cardiovascular system [8]: devoid of any secondary action | tolerance in chronic toxicity study [9]: perfectly well tolerated | In vitro spasmolytic action on the rabbit aorta [10]: 5 | In vitro spasmolytic action on the rabbit isolated ear [11]: 1,5 | In vivo spasmolytic action on paw vessels of the dog [12]: 30 | In vitro anti-serotonin activity on the female rat uterus in oestrus [13]: 0,07 | In vitro adrenolytic action on the Guinea-pig seminal vesicle [14]: 4 | In vitro atropinic action on the Guinea-pig ileum [15]: > 0,01 | Improvement of the psychic state ([16]; arteritis of the lower limbs, 8 cases): 4 times | Improvement in intellectual activity [16, 17]: once | Improvement of the psychic state [16, 17]: twice | Improvement of motor disturbances ([16]; hemiplegia sequelae, 2 cases): 0 | Improvement of the psychic state ([16]; hemiplegia sequelae, 2 cases): once
